Measurements as given in patent publication US4859655A, “Urdamycin G and derivatives thereof, a process for their preparation and their use” (Hoechst Aktiengesellschaft, priority 1986, dated 1989).
≈ marks a conversion by molar mass, not a printed value.

How the values were obtained:
[1] = test system: L 1210 leukemia cells; assay: Soft-agar assay, 1-hour incubation (Hamburger and Salmon); type: cell-based; settings: Mus musculus, L1210; L 1210, 1-hour incubation; 4 experiments, deviation less than 15%
Procedure: (§1) The experiment was carried out in accordance with the process of Hamburger and Salmon [New Engl. J. Med. 298, 1321-1327 (1978)]. The medium was replaced by McCoy 5A, and the number of cells was reduced to 5×10^2 cells/plate.
In the test, the cells were incubated at 37° C. for 1 hour at various concentrations of the test substance. The cells were then washed twice with McCoy 5A solution (Flow catalog, Meckenheim, FRG) and subsequently applied to agar plates in accordance with the method of Hamburger and Salmon. The cells were subsequently cultivated as described above, and the number of cell colonies was determined (evaluation as in a).
(§2) The IC50 value for continuous and 1-hour incubation was determined from the dose/action curve.
(§3) In all cases, the experiments were carried out 4 times. The deviation in the results was less than 15%.

[2] = test system: L 1210 leukemia cells; assay: Soft-agar assay, continuous incubation (Hamburger and Salmon); type: cell-based; settings: Mus musculus, L1210; L 1210, continuous incubation 5 to 7 days; 4 experiments, deviation less than 15%
Procedure: as §1
A continuous incubation of the cells with various concentrations of the test substance from Examples 4 and 5 was carried out. The compounds to be tested were applied to the agar plates before plating-out the cell cultures. The cell cultures then grew for 5 to 7 days in the incubator in an atmosphere of 5% of CO2, 20% of O2 and 95% relative atmospheric humidity at 37° C. After this time, the number of cell colonies having a diameter from 60 μm was determined (in %) relative to the number of cell colonies which had grown in comparison without test substance.
as §2, §3

[3] = test system: L 1210 tumor cells; assay: Proliferation experiment (MTT, 72 hours); type: cell-based; settings: Mus musculus, L1210, L 1210, 72 hours, 4 experiments, deviation less than 15%
Procedure: L 1210 tumor cells at the exponential growth phase (5×10^3 cells/ml, Roswell Park Memorial Institute (RPMI) medium) were incubated in a microtiter plate with […] for a period of 72 hours at 37° C., 5% of CO2 and 95% relative atmospheric humidity and various concentrations of the test substances. After 65 hours, 50 μl of [3-(4,5-dimethylthiazol-2-yl)-2,5-diphenyltetrazolium bromide](MTT) (2.5 mg/ml of MTT in phosphate buffer saline (PBS)) were added. The MTT was reduced by living cells into the red, water-insoluble dyestuff formazan. After a further 7 hours, the supernatant medium was carefully removed. Formazan was dissolved by adding 100 μl of dimethyl sulfoxide per recess and subsequent shaking gently. The extinction of each recess was determined using a Multisan 340 CC photometer (Messrs. Flow) at 492 nm. The results were determined from the extinction ratio of cells with test substance to cells without test substance.
as §3

[4] = test system: Gram-positive and Gram-negative bacteria; assay: plate-agar diffusion test in vitro; type: cell-based; settings: 10 μl/test circle, 6 mm diameter
[5] = test system: human and animal tumor cells; assay: tumor-inhibiting action in vitro; type: cell-based
[6] = stability in the solid state and as a solution; type: physicochemical; settings: pH range from 3 to 9, in particular from 5 to 8
[7] = solubility; type: physicochemical

| SMILES | IC50 [1] | IC50 [2] | IC50 [3] | antibacterial action [4] | tumor-inhibiting action [5] | stability [6] | solubility ([7]; methanol, acetone, DMSO, dioxane and chloroform) | solubility ([7]; water and alkanes) |
| --- | --- | --- | --- | --- | --- | --- | --- | --- |
| CC(=O)Oc1c(C2CC(OC3CCC(OC(C)=O)C(C)O3)C(OC(C)=O)C(C)O2)ccc2c1C(=O)C1=C(C2=O)C2(OC3CCC(OC(C)=O)C(C)O3)C(=O)CC(C)(O)CC2(O)C=C1 (stereo not shown) [5',4A,4C,8-Tetra-O-acetyl-urdamycin G, 5',4A,4C,8-tetra-O-acetyl urdamycin G] | 0.065 µg/mL (≈ 0.0736 µM) | 0.036 µg/mL (≈ 0.0408 µM) | < 1 µg/mL |  |  |  |  |  |
| CC1OC(OC2CC(c3ccc4c(c3O)C(=O)C3=C(C4=O)C4(OC5CCC(O)C(C)O5)C(=O)CC(C)(O)CC4(O)C=C3)OC(C)C2O)CCC1O (stereo not shown) [Urdamycin G] |  | 0.85 µg/mL (≈ 1.19 µM) | 3.5 µg/mL (≈ 4.9 µM) | comes into effect both against Gram-positive and Gram-negative bacteria | tumor-inhibiting action | stable | readily soluble | not in water and alkanes |
